Laboratory results published in PubChem BioAssay AID2060511 (Molecular Pharmacology Branch, DTP, NCI, 2025).

System: 422866-222-R5-J1-PDC spheroids with HUVEC/MSC, viability
Assay: Anticancer human tumor 422866-222-R5-J1-PDC patient-derived pancreatic adenocarcinoma cell line growth inhibition [GQUAD]
Conditions: for IC50: curve of first compound; for viability, T/C: stronger effect = lower value
Summary of the method: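 Multi-cell-type spheroids of tumor cells with HUVEC and mesenchymal stem cells, treated with drug combinations. Concentrations descend in half-log steps from near clinical Cmax, or from 10 microM where Cmax is unknown; viability read-out.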

[1] = second compound 0.0316 µM, first compound 0.0316 µM
[2] = second compound 0.0316 µM, first compound 0.1 µM
[3] = second compound 0.0316 µM, first compound 0.316 µM
[4] = second compound 0.0316 µM, first compound 1 µM
[5] = second compound 0.0316 µM, first compound 3.16 µM
[6] = second compound 0.0316 µM, first compound 10 µM
[7] = second compound 0.1 µM, first compound 0.0316 µM
[8] = second compound 0.1 µM, first compound 0.1 µM
[9] = second compound 0.1 µM, first compound 0.316 µM
[10] = second compound 0.1 µM, first compound 1 µM
[11] = second compound 0.1 µM, first compound 3.16 µM
[12] = second compound 0.1 µM, first compound 10 µM
[13] = second compound 0.316 µM, first compound 0.0316 µM
[14] = second compound 0.316 µM, first compound 0.1 µM
[15] = second compound 0.316 µM, first compound 0.316 µM
[16] = second compound 0.316 µM, first compound 1 µM
[17] = second compound 0.316 µM, first compound 3.16 µM
[18] = second compound 0.316 µM, first compound 10 µM
[19] = second compound 1 µM, first compound 0.0316 µM
[20] = second compound 1 µM, first compound 0.1 µM
[21] = second compound 1 µM, first compound 0.316 µM
[22] = second compound 1 µM, first compound 1 µM
[23] = second compound 1 µM, first compound 3.16 µM
[24] = second compound 1 µM, first compound 10 µM
[25] = second compound 3.16 µM, first compound 0.0316 µM
[26] = second compound 3.16 µM, first compound 0.1 µM
[27] = second compound 3.16 µM, first compound 0.316 µM
[28] = second compound 3.16 µM, first compound 1 µM
[29] = second compound 3.16 µM, first compound 3.16 µM
[30] = second compound 3.16 µM, first compound 10 µM
[31] = second compound 10 µM, first compound 0.0316 µM
[32] = second compound 10 µM, first compound 0.1 µM
[33] = second compound 10 µM, first compound 0.316 µM
[34] = second compound 10 µM, first compound 1 µM
[35] = second compound 10 µM, first compound 3.16 µM
[36] = second compound 10 µM, first compound 10 µM
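Note: spheroids exposed to compounds for seven days before reading.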
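Throughout, for viability, T/C: percent viability relative to DMSO vehicle control taken as 100%.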

CC(C)(O)C1CCC(Nc2ccc3ncc(-c4cccc(C(F)(F)F)c4)n3n2)CC1 (stereo unspecified) + Cc1[nH]c2ccc(F)cc2c1-c1nc2c3cccnc3c3ncccc3c2[nH]1
IC50 (second compound 0.0316 µM): 1110 nM
IC50 (second compound 0.1 µM): 833 nM
IC50 (second compound 0.316 µM): 1120 nM
IC50 (second compound 1 µM): 1490 nM
IC50 (second compound 3.16 µM): 421 nM
IC50 (second compound 10 µM): 531 nM
viability, T/C [1]: 99.4%
viability, T/C [2]: 79.8%
viability, T/C [3]: 78.5%
viability, T/C [4]: 50.7%
viability, T/C [5]: 31.8%
viability, T/C [6]: 26.9%
viability, T/C [7]: 118%
viability, T/C [8]: 103%
viability, T/C [9]: 64.7%
viability, T/C [10]: 50.9%
viability, T/C [11]: 34.1%
viability, T/C [12]: 29.8%
viability, T/C [13]: 103%
viability, T/C [14]: 99.2%
viability, T/C [15]: 80.3%
viability, T/C [16]: 51.1%
viability, T/C [17]: 36.5%
viability, T/C [18]: 29.5%
viability, T/C [19]: 87.1%
viability, T/C [20]: 88.4%
viability, T/C [21]: 77.6%
viability, T/C [22]: 55.4%
viability, T/C [23]: 38.9%
viability, T/C [24]: 27.1%
viability, T/C [25]: 56%
viability, T/C [26]: 63.5%
viability, T/C [27]: 52.4%
viability, T/C [28]: 39.3%
viability, T/C [29]: 37.8%
viability, T/C [30]: 29%
viability, T/C [31]: 66.3%
viability, T/C [32]: 68.3%
viability, T/C [33]: 62%
viability, T/C [34]: 35.1%
viability, T/C [35]: 33.9%
viability, T/C [36]: 26%

CC(=O)O[C@H]1C(=O)[C@@]2(C)[C@H]([C@H](OC(=O)c3ccccc3)[C@]3(O)C[C@H](OC(=O)[C@H](O)[C@@H](NC(=O)c4ccccc4)c4ccccc4)C(C)=C1C3(C)C)[C@]1(OC(C)=O)CO[C@@H]1C[C@@H]2O + Cc1cnc(CNC(=O)c2c(=O)c3ccc(N4CCCN(C)CC4)nc3n3c2sc2ccccc23)cn1
IC50 (second compound 0.0316 µM): > 10000 nM
IC50 (second compound 0.1 µM): > 10000 nM
IC50 (second compound 0.316 µM): > 10000 nM
IC50 (second compound 1 µM): > 10000 nM
IC50 (second compound 3.16 µM): > 10000 nM
IC50 (second compound 10 µM): > 10000 nM
viability, T/C [1]: 81%
viability, T/C [2]: 67.2%
viability, T/C [3]: 80.3%
viability, T/C [4]: 71.9%
viability, T/C [5]: 73.8%
viability, T/C [6]: 91.6%
viability, T/C [7]: 88%
viability, T/C [8]: 86.3%
viability, T/C [9]: 77.1%
viability, T/C [10]: 86.2%
viability, T/C [11]: 95.5%
viability, T/C [12]: 97.4%
viability, T/C [13]: 89.5%
viability, T/C [14]: 82.8%
viability, T/C [15]: 85.3%
viability, T/C [16]: 107%
viability, T/C [17]: 115%
viability, T/C [18]: 117%
viability, T/C [19]: 79.2%
viability, T/C [20]: 74.6%
viability, T/C [21]: 86.5%
viability, T/C [22]: 94.5%
viability, T/C [23]: 117%
viability, T/C [24]: 119%
viability, T/C [25]: 83.3%
viability, T/C [26]: 94.5%
viability, T/C [27]: 94.1%
viability, T/C [28]: 91.7%
viability, T/C [29]: 118%
viability, T/C [30]: 107%
viability, T/C [31]: 80.1%
viability, T/C [32]: 78.8%
viability, T/C [33]: 71.6%
viability, T/C [34]: 101%
viability, T/C [35]: 104%
viability, T/C [36]: 123%

Nc1ccn(C2OC(CO)C(O)C2(F)F)c(=O)n1 (stereo unspecified) + Cc1cnc(CNC(=O)c2c(=O)c3ccc(N4CCCN(C)CC4)nc3n3c2sc2ccccc23)cn1
IC50 (second compound 0.0316 µM): 1190 nM
IC50 (second compound 0.1 µM): > 10000 nM
IC50 (second compound 0.316 µM): > 10000 nM
IC50 (second compound 1 µM): > 10000 nM
IC50 (second compound 3.16 µM): > 10000 nM
IC50 (second compound 10 µM): > 10000 nM
viability, T/C [1]: 86.7%
viability, T/C [2]: 67.8%
viability, T/C [3]: 69.1%
viability, T/C [4]: 47.2%
viability, T/C [5]: 41.9%
viability, T/C [6]: 43%
viability, T/C [7]: 85.6%
viability, T/C [8]: 87%
viability, T/C [9]: 70.7%
viability, T/C [10]: 48.6%
viability, T/C [11]: 50.8%
viability, T/C [12]: 54.8%
viability, T/C [13]: 96.5%
viability, T/C [14]: 81%
viability, T/C [15]: 70.3%
viability, T/C [16]: 62.3%
viability, T/C [17]: 54.1%
viability, T/C [18]: 58.1%
viability, T/C [19]: 78.2%
viability, T/C [20]: 72.7%
viability, T/C [21]: 74.3%
viability, T/C [22]: 69.2%
viability, T/C [23]: 68.3%
viability, T/C [24]: 63.4%
viability, T/C [25]: 70.5%
viability, T/C [26]: 88.6%
viability, T/C [27]: 72.4%
viability, T/C [28]: 79.8%
viability, T/C [29]: 71.2%
viability, T/C [30]: 58.4%
viability, T/C [31]: 84.9%
viability, T/C [32]: 78.4%
viability, T/C [33]: 89.5%
viability, T/C [34]: 79.2%
viability, T/C [35]: 67.2%
viability, T/C [36]: 63.4%
